Consider 16 molecules from PMC6491818, “Novel 4-Acrylamido-Quinoline Derivatives as Potent PI3K/mTOR Dual Inhibitors: The Design, Synthesis, and in vitro and in vivo Biological Evaluation” (Frontiers in Chemistry, 2019).

The test system of experiment [1] is prostate cancer PC3 cell line. Description: Anti-proliferative SRB assay, PC3. It counts as cell-based. Conditions: PC3 cells, 72 h exposure. How it is done: (§1) The anti-proliferative activity of compounds was evaluated by sulforhodamin B (SRB) assay. After being cultured for 10 h, cells in 96-well plates were subjected to 72 h-exposure to serially diluted compound solutions. Cells were washed with PBS and fixed with trichloroacetic acid (10%, W/V) at 4°C for 1 h. Then, cells were successively washed with PBS, stained for 0.5 h with SRB (0.4%, dissolved in 1% acetic acid), and washed by 1% acetic acid for 5 times. Protein-bound dye was extracted with unbuffered Tris base (10 mmol). After calculating the percent inhibition from absorbance, measured at 515 nm with a multiscan spectrum (Thermo Electron Co., Vantaa, Finland), the curves were fitted in Graphpad Prism 5 to give GI50 values.

The target of another experiment is PI3Kα (Homo sapiens, UniProt P42336). Description: PI3Kα enzymatic assay (Kinase-Glo Luminescent Kinase assay). It counts as biochemical. A general note: Kinase-Glo reads ATP consumption through a luciferase reaction.
Sequence of PI3Kα (P42336 whole entry): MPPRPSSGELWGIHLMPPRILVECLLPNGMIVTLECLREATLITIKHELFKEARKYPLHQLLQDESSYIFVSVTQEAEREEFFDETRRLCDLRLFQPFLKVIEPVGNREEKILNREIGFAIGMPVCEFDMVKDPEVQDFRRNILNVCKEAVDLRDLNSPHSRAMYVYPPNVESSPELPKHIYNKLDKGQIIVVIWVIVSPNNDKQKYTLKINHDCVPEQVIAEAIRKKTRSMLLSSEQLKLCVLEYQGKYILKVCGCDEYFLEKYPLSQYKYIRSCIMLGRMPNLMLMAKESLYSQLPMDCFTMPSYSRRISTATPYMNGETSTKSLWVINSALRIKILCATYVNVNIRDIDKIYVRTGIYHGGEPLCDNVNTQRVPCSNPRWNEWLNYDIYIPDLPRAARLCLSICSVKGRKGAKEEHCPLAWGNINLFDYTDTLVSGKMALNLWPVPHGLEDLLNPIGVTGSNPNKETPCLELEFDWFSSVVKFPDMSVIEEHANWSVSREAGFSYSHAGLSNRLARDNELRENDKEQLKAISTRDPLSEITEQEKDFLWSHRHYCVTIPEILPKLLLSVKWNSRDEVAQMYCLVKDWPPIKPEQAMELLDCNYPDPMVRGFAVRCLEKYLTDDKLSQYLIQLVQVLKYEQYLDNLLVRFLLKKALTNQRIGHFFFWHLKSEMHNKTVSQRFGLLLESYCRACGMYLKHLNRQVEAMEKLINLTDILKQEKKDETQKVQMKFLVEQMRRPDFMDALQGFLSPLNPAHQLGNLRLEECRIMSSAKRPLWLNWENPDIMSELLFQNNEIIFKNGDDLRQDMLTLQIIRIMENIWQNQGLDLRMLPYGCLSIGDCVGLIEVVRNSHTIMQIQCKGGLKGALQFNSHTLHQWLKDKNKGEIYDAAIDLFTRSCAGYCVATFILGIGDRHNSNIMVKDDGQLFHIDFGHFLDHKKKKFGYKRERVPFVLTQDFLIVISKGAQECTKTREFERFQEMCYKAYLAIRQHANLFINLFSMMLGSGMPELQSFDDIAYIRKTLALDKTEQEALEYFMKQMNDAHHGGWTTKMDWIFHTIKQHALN
Sequence of PI3Kα (P27986 whole entry partner): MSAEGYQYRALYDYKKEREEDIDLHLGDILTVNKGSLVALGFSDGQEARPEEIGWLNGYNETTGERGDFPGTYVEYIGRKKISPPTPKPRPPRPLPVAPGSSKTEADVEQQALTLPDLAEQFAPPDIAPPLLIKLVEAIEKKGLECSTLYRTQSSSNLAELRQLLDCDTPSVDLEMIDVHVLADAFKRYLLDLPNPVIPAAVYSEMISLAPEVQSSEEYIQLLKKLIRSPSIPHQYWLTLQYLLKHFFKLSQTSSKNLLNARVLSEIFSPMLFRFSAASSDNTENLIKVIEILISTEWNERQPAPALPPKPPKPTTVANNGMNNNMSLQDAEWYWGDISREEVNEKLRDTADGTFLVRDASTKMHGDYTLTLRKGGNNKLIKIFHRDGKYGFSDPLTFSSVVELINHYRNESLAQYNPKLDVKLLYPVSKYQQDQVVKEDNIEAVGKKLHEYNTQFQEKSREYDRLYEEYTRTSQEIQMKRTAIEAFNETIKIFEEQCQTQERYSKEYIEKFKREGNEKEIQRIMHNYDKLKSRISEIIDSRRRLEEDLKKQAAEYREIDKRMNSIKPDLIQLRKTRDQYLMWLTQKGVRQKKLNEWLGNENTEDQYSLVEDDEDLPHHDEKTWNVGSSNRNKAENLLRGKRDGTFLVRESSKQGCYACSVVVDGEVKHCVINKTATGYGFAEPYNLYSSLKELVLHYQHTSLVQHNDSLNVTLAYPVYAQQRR
Experiment [2] has as its system colorectal cancer HCT116 cell line. Description: Anti-proliferative SRB assay, HCT116. It counts as cell-based. Conditions: 72 h exposure; for GI50 HCT116: HCT116 cells; for GI50: Homo sapiens, HCT-116, HCT116 cells. As to the method: as §1
A further experiment has as its target PI3Kγ (Homo sapiens, UniProt P48736). Description: PI3Kγ enzymatic assay (ADP-Glo Luminescent assay). The format is biochemical. How it is done: Kinase-Glo Luminescent Kinase assay (Promega) was performed to determine the PI3Kα inhibitory activity, while ADP-Glo Luminescent assay (Promega) was performed to identify the inhibitory activity against PI3Kβ, γ, or δ. The kinase buffer was composed of HEPES (50 mM, pH 7.5), MgCl2 (3 mM), EGTA (1 mM), NaCl (100 mM), CHAPS (0.03%) and DTT (2 mM). The serially diluted compound solutions […] were successively added to a 384-well plate. Afterwards, the solution of kinase […] in the kinase buffer and the solution of substrate (5 mL) in the kinase buffer containing PIP2 and ATP were added to each well of the assay plate for starting the reaction. Kinase buffer was added instead to the control well without enzyme. The final concentrations of PI3Kα, PI3Kβ, PI3Kγ, PI3Kδ, PIP2, and ATP in corresponding kinase reaction mixture were 1.65 nM, 4.8 nM, 7.6 nM, 5.7 nM, […], respectively. After being incubated at room temperature for 1 h, Kinase-Glo reagent […] was added to each well of the PI3Kα assay plate to quench the reaction. Subsequently, the mixture needs to be mixed briefly with centrifuge and shaken slowly for 15 min before being read on a plate reader for luminescence. As for PI3Kβ, γ, or δ, reaction mixture (5 mL) was transferred to a new 384-plate and ADP-Glo reagent (5 mL) was added for stopping the reaction. The mixture was treated briefly with centrifuge, shaken slowly, and equilibrated for 40 min. Kinase Detection reagent […] was added to each well. Before reading on a plate reader for luminescence, the resultant mixture was incubated at room temperature for 1 h. After calculating the percent inhibition from the RLU values, the curves were fitted in Graphpad Prism 5 to give IC50 values.
(In general: In ADP-Glo the light output rises with the ADP produced.)

The target of a further experiment is PI3Kβ (Homo sapiens, UniProt P42338). Description: PI3Kβ enzymatic assay (ADP-Glo Luminescent assay). It counts as biochemical.
Sequence of PI3Kβ (P42338 whole entry): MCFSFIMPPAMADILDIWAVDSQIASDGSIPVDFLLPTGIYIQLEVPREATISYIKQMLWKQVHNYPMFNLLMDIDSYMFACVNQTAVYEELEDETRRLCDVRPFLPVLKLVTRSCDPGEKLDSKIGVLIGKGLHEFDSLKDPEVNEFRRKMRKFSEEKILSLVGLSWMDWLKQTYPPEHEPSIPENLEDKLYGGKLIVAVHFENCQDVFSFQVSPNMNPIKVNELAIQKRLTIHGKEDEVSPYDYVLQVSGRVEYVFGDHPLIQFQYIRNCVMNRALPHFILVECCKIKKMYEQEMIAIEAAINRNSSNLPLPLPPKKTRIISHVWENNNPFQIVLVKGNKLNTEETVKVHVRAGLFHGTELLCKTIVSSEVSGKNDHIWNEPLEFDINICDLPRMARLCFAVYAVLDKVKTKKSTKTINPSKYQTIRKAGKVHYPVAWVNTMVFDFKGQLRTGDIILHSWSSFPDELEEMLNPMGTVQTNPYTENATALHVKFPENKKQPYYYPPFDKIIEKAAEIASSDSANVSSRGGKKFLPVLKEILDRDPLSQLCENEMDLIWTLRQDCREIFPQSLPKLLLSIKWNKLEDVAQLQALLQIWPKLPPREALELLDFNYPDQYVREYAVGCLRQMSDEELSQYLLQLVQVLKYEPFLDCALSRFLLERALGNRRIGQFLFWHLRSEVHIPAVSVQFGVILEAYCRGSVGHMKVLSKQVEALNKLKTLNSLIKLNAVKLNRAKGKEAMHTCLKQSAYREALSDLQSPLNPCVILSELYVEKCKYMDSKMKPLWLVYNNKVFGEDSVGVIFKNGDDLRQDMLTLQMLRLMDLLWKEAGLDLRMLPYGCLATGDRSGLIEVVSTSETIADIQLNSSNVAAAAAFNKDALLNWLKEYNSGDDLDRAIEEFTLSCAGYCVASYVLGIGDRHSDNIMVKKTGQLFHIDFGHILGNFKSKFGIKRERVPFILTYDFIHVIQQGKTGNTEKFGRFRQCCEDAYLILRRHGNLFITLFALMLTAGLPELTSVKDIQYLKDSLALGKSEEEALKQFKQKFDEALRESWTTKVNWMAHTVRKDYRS
Sequence of PI3Kβ (P27986 whole entry partner): as the sequence (P27986 whole entry partner) above
The target of a further experiment is PI3Kδ (Homo sapiens, UniProt O00329). Description: PI3Kδ enzymatic assay (ADP-Glo Luminescent assay). It counts as biochemical.
Sequence of PI3Kδ (O00329 whole entry): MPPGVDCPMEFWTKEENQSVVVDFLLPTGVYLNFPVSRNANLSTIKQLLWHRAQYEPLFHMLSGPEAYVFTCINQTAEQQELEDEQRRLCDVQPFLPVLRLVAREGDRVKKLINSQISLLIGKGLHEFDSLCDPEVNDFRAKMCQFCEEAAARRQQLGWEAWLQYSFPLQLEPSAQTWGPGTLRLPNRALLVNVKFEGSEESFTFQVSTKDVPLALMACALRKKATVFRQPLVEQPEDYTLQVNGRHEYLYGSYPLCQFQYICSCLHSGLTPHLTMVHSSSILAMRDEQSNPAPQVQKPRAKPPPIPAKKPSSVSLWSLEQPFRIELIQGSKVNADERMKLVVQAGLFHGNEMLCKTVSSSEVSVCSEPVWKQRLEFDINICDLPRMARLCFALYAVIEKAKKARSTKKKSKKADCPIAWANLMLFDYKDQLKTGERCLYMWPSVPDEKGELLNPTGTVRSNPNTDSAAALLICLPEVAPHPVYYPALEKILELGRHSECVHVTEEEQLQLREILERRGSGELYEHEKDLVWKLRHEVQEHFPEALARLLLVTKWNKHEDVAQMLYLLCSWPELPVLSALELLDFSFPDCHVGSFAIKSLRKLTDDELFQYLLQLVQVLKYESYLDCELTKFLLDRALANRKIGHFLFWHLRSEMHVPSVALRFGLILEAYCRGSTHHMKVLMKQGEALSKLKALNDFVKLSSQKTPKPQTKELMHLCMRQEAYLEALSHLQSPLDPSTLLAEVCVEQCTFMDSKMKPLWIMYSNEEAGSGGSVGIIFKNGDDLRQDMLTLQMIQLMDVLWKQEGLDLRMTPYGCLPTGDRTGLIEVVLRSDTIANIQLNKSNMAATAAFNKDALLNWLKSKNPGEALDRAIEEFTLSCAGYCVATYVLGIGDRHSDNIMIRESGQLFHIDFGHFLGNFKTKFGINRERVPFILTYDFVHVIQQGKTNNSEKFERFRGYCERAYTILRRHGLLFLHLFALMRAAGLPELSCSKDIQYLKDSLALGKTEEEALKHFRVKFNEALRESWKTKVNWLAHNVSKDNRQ
Sequence of PI3Kδ (P27986 whole entry partner): as the sequence (P27986 whole entry partner) above
The target of experiment [3] is mTOR (1362-end, Millipore) (Homo sapiens, UniProt P42345). Description: mTOR enzymatic assay (Lance Ultra assay). It counts as biochemical.
Method: The kinase buffer was composed of HEPES (50 mM, pH 7.5), MgCl2 (10 mM), EGTA (1 mM), MnCl2 (3 mM), Tween-20 (0.01%) and DTT (2 mM). The solution of substrate in the kinase buffer contained ULight-4E-BP1 peptide (Thr37/46, PE) and ATP. […] After being incubated at room temperature for 1 h, kinase detection buffer (10 mL) containing EDTA and Eu-anti-phospho-4E-BP1 antibody (Thr37/46, PE) was added to each well of the assay plate. Before reading on a plate reader, the mixture needs to be mixed briefly with centrifuge and then allowed to equilibrate for 1 h. After calculating the percent inhibition from Lance signal, the curves were fitted in Graphpad Prism 5 to give IC50 values.

Sequence of PI3Kγ (P48736 whole entry): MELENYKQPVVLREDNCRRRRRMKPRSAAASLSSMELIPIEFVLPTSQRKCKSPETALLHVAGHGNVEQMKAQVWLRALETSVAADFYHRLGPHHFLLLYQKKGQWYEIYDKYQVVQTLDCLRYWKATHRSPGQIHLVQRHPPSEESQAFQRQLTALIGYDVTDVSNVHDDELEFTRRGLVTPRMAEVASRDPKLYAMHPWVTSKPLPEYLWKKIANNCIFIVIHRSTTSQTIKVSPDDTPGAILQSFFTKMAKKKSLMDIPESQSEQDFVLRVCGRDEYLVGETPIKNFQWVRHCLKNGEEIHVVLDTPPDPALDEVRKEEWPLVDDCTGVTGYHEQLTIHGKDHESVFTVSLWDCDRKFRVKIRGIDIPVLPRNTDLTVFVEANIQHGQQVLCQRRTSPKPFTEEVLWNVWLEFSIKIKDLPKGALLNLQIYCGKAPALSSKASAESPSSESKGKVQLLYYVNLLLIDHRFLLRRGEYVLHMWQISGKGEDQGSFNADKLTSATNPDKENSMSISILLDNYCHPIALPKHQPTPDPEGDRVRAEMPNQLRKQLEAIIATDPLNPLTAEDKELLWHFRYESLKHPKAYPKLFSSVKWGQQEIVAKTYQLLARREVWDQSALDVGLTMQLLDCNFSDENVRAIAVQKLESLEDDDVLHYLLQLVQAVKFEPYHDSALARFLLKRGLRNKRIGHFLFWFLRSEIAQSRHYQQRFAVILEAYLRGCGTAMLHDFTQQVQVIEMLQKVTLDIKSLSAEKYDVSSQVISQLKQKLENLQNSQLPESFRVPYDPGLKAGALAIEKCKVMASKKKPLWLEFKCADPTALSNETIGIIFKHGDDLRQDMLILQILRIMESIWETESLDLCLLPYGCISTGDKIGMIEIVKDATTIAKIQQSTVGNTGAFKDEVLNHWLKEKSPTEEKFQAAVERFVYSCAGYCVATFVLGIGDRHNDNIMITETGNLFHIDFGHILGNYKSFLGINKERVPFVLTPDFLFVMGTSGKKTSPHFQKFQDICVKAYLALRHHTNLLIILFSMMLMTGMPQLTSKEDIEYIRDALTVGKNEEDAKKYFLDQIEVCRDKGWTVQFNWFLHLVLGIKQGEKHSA
Method for PI3Kα: (§2) Kinase-Glo Luminescent Kinase assay (Promega) was performed to determine the PI3Kα inhibitory activity, while ADP-Glo Luminescent assay (Promega) was performed to identify the inhibitory activity against PI3Kβ, γ, or δ. The kinase buffer was composed of HEPES (50 mM, pH 7.5), MgCl2 (3 mM), EGTA (1 mM), NaCl (100 mM), CHAPS (0.03%) and DTT (2 mM). The serially diluted compound solutions (2.5 mL) were successively added to a 384-well plate. Afterwards, the solution of kinase (2.5 mL) in the kinase buffer and the solution of substrate (5 mL) in the kinase buffer containing PIP2 and ATP were added to each well of the assay plate for starting the reaction. Kinase buffer was added instead to the control well without enzyme. […] After being incubated at room temperature for 1 h, Kinase-Glo reagent (10 mL) was added to each well of the PI3Kα assay plate to quench the reaction. […] The mixture was treated briefly with centrifuge, shaken slowly, and equilibrated for 40 min. Kinase Detection reagent (10 mL) was added to each well. Before reading on a plate reader for luminescence, the resultant mixture was incubated at room temperature for 1 h. After calculating the percent inhibition from the RLU values, the curves were fitted in Graphpad Prism 5 to give IC50 values.
Method for PI3Kβ: as §2
Method for PI3Kδ: as §2

As a reminder, the GI50 is the concentration giving 50% growth inhibition. Usually IC50 stands for the concentration at which inhibition is half-maximal. The low end stands for greater potency in that assay, the high end for weaker potency in that assay. In the case of `COc1ncc(-c2ccc3nccc(/C=C/C(=O)N4CCC(O)CC4)c3c2)cc1NS(=O)(=O)c1ccc(F)cc1F` [8k, (E)-2,4-difluoro-N-(5-(4-(3-(4-hydroxypiperidin-1-yl)-3-oxoprop-1-en-1-yl)quinolin-6-yl)-2-methoxypyridin-3-yl)benzenesulfonamide], the GI50 in experiment [1] (Homo sapiens, PC-3, 72 h) was under 500 nM; in experiment [1], 280 nM; in experiment [2], 320 nM. Moreover, at PI3Kα, it took 0.79 nM to reach half-maximal inhibition (IC50). In experiment [2], the “GI50 HCT116” value is reported as “sub-micromolar”.
Consider `COc1ncc(-c2ccc3nccc(-c4ccnnc4)c3c2)cc1NS(=O)(=O)c1ccc(F)cc1F` [GSK2126458, reference compound], for which the GI50 in experiment [1] (Homo sapiens, PC-3, 72 h) turned out to be 220 nM; in experiment [2], 180 nM. At PI3Kγ, this molecule came in with an IC50 of 0.44 nM.
`COc1ncc(-c2ccc3ncccc3c2)cc1NS(=O)(=O)c1ccc(F)cc1F` [compound 10, 2,4-Difluoro-N-(2-methoxy-5-(quinolin-6-yl)pyridin-3-yl)benzenesulfonamide]: the GI50 in experiment [1] (Homo sapiens, PC-3, 72 h) is 7160 nM; in experiment [2], 3670 nM. Also, at PI3Kα, the midpoint of inhibition, the IC50, lay at 14.3 nM.
In the same order, the values of `COc1ncc(-c2ccc3nccc(/C=C/C(=O)NC4CCC4)c3c2)cc1NS(=O)(=O)c1ccc(F)cc1F` [8e, (E)-N-cyclobutyl-3-(6-(5-((2,4-difluorophenyl)sulfonamido)-6-methoxypyridin-3-yl)quinolin-4-yl)acrylamide] are 1480 nM, 1250 nM and 1.43 nM.
The like results for `COc1ncc(-c2ccc3nccc(/C=C/C(=O)NCCN4CCOCC4)c3c2)cc1NS(=O)(=O)c1ccc(F)cc1F` [8n, (E)-3-(6-(5-((2,4-difluorophenyl)sulfonamido)-6-methoxypyridin-3-yl)quinolin-4-yl)-N-(2-morpholinoethyl)acrylamide] were, in that order, 1430 nM, 1790 nM and 1.1 nM.
In the case of `COc1ncc(-c2ccc3nccc(/C=C/C(=O)N4CCOCC4)c3c2)cc1NS(=O)(=O)c1ccc(F)cc1F` [8h, (E)-2,4-difluoro-N-(2-methoxy-5-(4-(3-morpholino-3-oxoprop-1-en-1-yl)quinolin-6-yl)pyridin-3-yl)benzenesulfonamide], the GI50 in experiment [1] (Homo sapiens, PC-3, 72 h) is under 500 nM; in experiment [1], 360 nM; in experiment [2] it was 510 nM. It took 0.53 nM to reach half-maximal inhibition against PI3Kα (IC50). The “GI50 HCT116” value in experiment [2] is on record as “sub-micromolar”.
On to `COCCNC(=O)/C=C/c1ccnc2ccc(-c3cnc(OC)c(NS(=O)(=O)c4ccc(F)cc4F)c3)cc12` [8b, (E)-3-(6-(5-((2,4-difluorophenyl)sulfonamido)-6-methoxypyridin-3-yl)quinolin-4-yl)-N-(2-methoxyethyl)acrylamide], for which the GI50 is 840 nM in experiment [1] (Homo sapiens, PC-3, 72 h) and 1130 nM in experiment [2]. On PI3Kα, this molecule displayed a 50% inhibitory concentration (IC50) of 2.03 nM.
In the same order, the values of `COc1ncc(-c2ccc3nccc(/C=C/C(=O)N4CCC(CO)CC4)c3c2)cc1NS(=O)(=O)c1ccc(F)cc1F` [8m, (E)-2,4-difluoro-N-(5-(4-(3-(4-(hydroxymethyl)piperidin-1-yl)-3-oxoprop-1-en-1-yl)quinolin-6-yl)-2-methoxypyridin-3-yl)benzenesulfonamide] are 2560 nM, 1290 nM and 0.68 nM.
The like results for `COc1ncc(-c2ccc3nccc(/C=C/C(=O)N4CCCC4)c3c2)cc1NS(=O)(=O)c1ccc(F)cc1F` [8f, (E)-2,4-difluoro-N-(2-methoxy-5-(4-(3-oxo-3-(pyrrolidin-1-yl)prop-1-en-1-yl)quinolin-6-yl)pyridin-3-yl)benzenesulfonamide] were, in that order, 950 nM, 1460 nM and 0.62 nM.
On to `COc1ncc(-c2ccc3nccc(/C=C/C(=O)N4CCCC(O)C4)c3c2)cc1NS(=O)(=O)c1ccc(F)cc1F` (stereo not shown) [8l, (E)-2,4-difluoro-N-(5-(4-(3-(3-hydroxypiperidin-1-yl)-3-oxoprop-1-en-1-yl)quinolin-6-yl)-2-methoxypyridin-3-yl)benzenesulfonamide], for which the GI50 in experiment [1] (Homo sapiens, PC-3, 72 h) stood at 1310 nM; in experiment [2] it was 1560 nM. This molecule had an IC50 against PI3Kα of 0.75 nM.
In the same order, the values of `COc1ncc(-c2ccc3nccc(/C=C/C(=O)NC(C)(C)C)c3c2)cc1NS(=O)(=O)c1ccc(F)cc1F` [8a, (E)-N-(tert-butyl)-3-(6-(5-((2,4-difluorophenyl)sulfonamido)-6-methoxypyridin-3-yl)quinolin-4-yl)acrylamide] are 1900 nM, 700 nM and 0.63 nM.
The like results for `COc1ncc(-c2ccc3nccc(/C=C/C(=O)Nc4ccccc4)c3c2)cc1NS(=O)(=O)c1ccc(F)cc1F` [8o, (E)-3-(6-(5-((2,4-difluorophenyl)sulfonamido)-6-methoxypyridin-3-yl)quinolin-4-yl)-N-phenylacrylamide] were, in that order, 4830 nM, 1520 nM and 1.8 nM.
In the same order, the values of `COc1ncc(-c2ccc3nccc(/C=C/C(=O)N4CCN(C(C)C)CC4)c3c2)cc1NS(=O)(=O)c1ccc(F)cc1F` [8j, (E)-2,4-difluoro-N-(5-(4-(3-(4-isopropylpiperazin-1-yl)-3-oxoprop-1-en-1-yl)quinolin-6-yl)-2-methoxypyridin-3-yl)benzenesulfonamide] are 880 nM, 970 nM and 1.9 nM.
As for `COc1ncc(-c2ccc3nccc(/C=C/C(=O)NC4CC4)c3c2)cc1NS(=O)(=O)c1ccc(F)cc1F` [8d, (E)-N-cyclopropyl-3-(6-(5-((2,4-difluorophenyl)sulfonamido)-6-methoxypyridin-3-yl)quinolin-4-yl)acrylamide], the GI50 in experiment [1] (Homo sapiens, PC-3, 72 h) stood at 1870 nM; in experiment [2], 1560 nM. The 50% inhibitory concentration (IC50) on PI3Kα worked out at 1.03 nM.
With `COc1ncc(-c2ccc3nccc(/C=C/C(=O)N4CCCCC4)c3c2)cc1NS(=O)(=O)c1ccc(F)cc1F` [8g, (E)-2,4-difluoro-N-(2-methoxy-5-(4-(3-oxo-3-(piperidin-1-yl)prop-1-en-1-yl)quinolin-6-yl)pyridin-3-yl)benzenesulfonamide], the GI50 is 2500 nM in experiment [1] (Homo sapiens, PC-3, 72 h) and 1300 nM in experiment [2]. In addition, inhibition against PI3Kα was half-maximal at 0.68 nM (IC50).
With `COc1ncc(-c2ccc3nccc(/C=C/C(=O)N(C)CCO)c3c2)cc1NS(=O)(=O)c1ccc(F)cc1F` [8c, (E)-3-(6-(5-((2,4-difluorophenyl)sulfonamido)-6-methoxypyridin-3-yl)quinolin-4-yl)-N-(2-hydroxyethyl)-N-methylacrylamide], the GI50 was under 500 nM in experiment [1] (Homo sapiens, PC-3, 72 h); 450 nM in experiment [1]; 960 nM in experiment [2]. Besides, the IC50 at PI3Kβ was found to be 1.2 nM; against PI3Kδ, 1.3 nM; against PI3Kγ, 0.5 nM; in experiment [3], 1.2 nM; on PI3Kα, 0.67 nM. Further, the “GI50 HCT116” value in experiment [2] is “sub-micromolar”.
